This passage reports IC50 and GI50 results from patent US20220298174A1, “TETRACYCLIC COMPOUND, PREPARATION METHOD THEREFOR AND USE THEREOF” (SHANGHAI JEMINCARE PHARMACEUTICALS CO., LTD, priority 2019, published 2022).

Read-outs that look alike come from different tables or passages of the source.

Type in all cases: cell-based
In test [1] the test system is pERK (Thr202/Tyr204) in NCI-H358 cells expressing mutant RAS (G12C). As to the kind of experiment: Inhibition of RAS-mediated signal transduction: p-ERK ELISA normalized to Janus green. On the procedure:
NCI-H358 cells (ATCC accession No. CRL-5807) expressing mutant RAS (G12C) were cultured in an RPMI medium containing 10% fetal bovine serum, penicillin/streptomycin double antibody. The cells were plated on to a 96-well plate (Corning Cat. No. 3699) at 40,000 cells per well and left standing overnight to adhere to the bottom of the plate. The cells were treated with or without the compounds of the present disclosure (dimethylsulfoxide, DMSO), with a final DMSO concentration of 0.5% ensured. After 2 hours of treatment, the medium was removed, and 4% paraformaldehyde (Beyotime Cat. No. E672002-0100) was added. The resulting mixture was left standing for 20 min. After being immobilized, the cells were washed with PBS and incubated with pre-cooled methanol for 10 min to permeabilize the cell membrane. Non-specific antibody binding was blocked by incubation for 1 h with 1× blocking buffer (Thermo Cat. No. 37520).
The ERK phosphorylation level was detected by enzyme-linked immunosorbent assay (ELISA). A phospho-ERK antibody (Cell Signal Technology Cat. No. 4370) was 1:400 diluted with 1× blocking solution containing 0.05% tween 20 and added to the 96-well plate for overnight incubation at 4° C. The plate was washed 5 times with PBS containing 0.05% tween 20. An HRP-conjugated secondary antibody (Thermo Cat. No. 31460) was 1:10,000 diluted with 1× blocking buffer containing 0.05% tween 20 and added to the 96-well plate for incubation for 2 h at room temperature. The plate was washed 5 times with PBS containing 0.05% Tween and incubated with TMB (Thermo Cat. No. 4816) at room temperature for 15 min. The reaction was terminated with 1 mol/L H2SO4, and the OD values were read at a wavelength of 450 nm using an EnVision (PerkinElmer).
The total number of cells per well was measured using the Janus green staining method. The 96-well plate after the detection of the ERK phosphorylation level was washed to colorlessness with PBS and incubated with 0.1% Janus green (Abcam Cat. No. ab111622) for 10 min. After washing with double distilled water, the plate was incubated with 0.1 mol/L HCl with shaking for 10 min. The OD values were read at a wavelength of 595 nm using an EnVision (PerkinElmer).
The signal values of pERK (Thr202/Tyr204) were normalized using the signal values of Janus green, and the inhibition percentages relative to the DMSO reference were calculated after treatment with the drugs. The percentage values were subjected to four-parameter dose response curve fitting to generate IC50 values.

Test [2] concerns MIA PaCa2 cells expressing KRAS-G12C. As to the kind of experiment: Cell proliferation assay (Cell Titer Glo), MIA PaCa2. To be noted: Homo sapiens, MIA PaCa-2, 72 h, ATP content (Cell Titer Glo). On the procedure:
(§1) The ability of the compounds of the present disclosure to inhibit the growth of KRAS-G12C-expressing cells was assessed by measuring cell viability and calculating GI50 values.
(§2) Tumor cell line NCI-H358 (ATCC accession No. CRL-5807) expressing KRAS-G12C was cultured in an RPMI medium supplemented with 10% fetal bovine serum and penicillin/streptomycin double antibody; tumor cell line MIA PaCa2 (ATCC CRL-1420) expressing KRAS-G12C was cultured in a DMEM medium supplemented with 10% fetal bovine serum, 2.5% horse serum and penicillin/streptomycin double antibody.
(§3) NCI-H358 and MIA-Paca2 cells were seeded on a black clear-bottom 384-well plate (PerkinElmer Cat. No. 6007460) at densities of 1000 and 800 cells, respectively, and allowed to adhere to the walls overnight (8-12 h). After the cells adhered to the walls, the diluted compounds of the present disclosure with a concentration that was 5 times that of the working solution (containing 0.1% dimethyl sulfoxide, namely DMSO, at the final concentration) was added to the experimental groups; the same dilution (containing 0.1% DMSO at the final concentration) as in the experimental groups was added to the control group. After 72 h, the amount of cell proliferation was measured by measuring ATP content using a Cell Titer Glo reagent (Promega Cat. No. G7572) according to the method described in the manuals. Steps are briefly as follows: the cell plate was taken out and equilibrated at normal temperature for 30 min; the Cell Titer Glo reagent with an equal volume to that of the culture was added; the culture plate was placed on a shaker for lysis for 2 min; the culture plate was left standing at normal temperature for 10 min; the optical signal values were read using a microplate reader EnVision (PerkinElmer).
(§4) The inhibition percentages were calculated from the data of the experimental groups relative to the DMSO group, and GI50 was calculated using the data processing software GraphPad by analyzing the inhibitory rates yielded by 9 dosing concentrations produced by 1:3 dilution of the compounds, with the results shown in Table 2.

For test [3], the system named is NCI-H358 cells expressing KRAS-G12C. The experiment in a line: Cell proliferation assay (Cell Titer Glo), NCI-H358. To be noted: Homo sapiens, 72 h, ATP content (Cell Titer Glo). The method, then: as §1, §2, §3, §4
[4] abbreviates: Homo sapiens, NCI-H358, 2 h, NCI-H358 cells, 2 hours of treatment, ELISA, read-out: p-ERK IC50 (NCI H358).
Where [5] appears, read: NCI-H358 cells, 2 hours of treatment, ELISA, read-out: p-ERK IC50 (NCI H358).

Consider `C=CC(=O)N1CCN2c3nc(=O)n(-c4c(C)ccnc4C(C)C)c4cc(-c5c(F)ccc6cc[nH]c(=O)c56)c(F)c(c34)OC[C@H]2C1` [Compound 14A], for which the IC50 in test [1] (setting [4]) was more than 10 µM.

Turning to `C=CC(=O)N1CCN2c3nc(=O)n(-c4c(C)ccnc4C(C)C)c4c(F)c(-c5c(O)cccc5F)nc(c34)OC[C@H]2C1` (atropisomer, axis not shown) [Compound 10A], the results for the GI50 in test [2] and in test [3] were 333 nM and 111 nM, respectively. In addition, the IC50 in test [1] (setting [4]) is 0.065 µM.

On to `C=CC(=O)N1CCN2c3nc(=O)n(-c4c(C)ccnc4C(C)C)c4cc(-c5c(N)c(Cl)cc(Cl)c5F)c(F)c(c34)OC[C@H]2C1` (atropisomer, axis not shown) [Compound 11A], for which the GI50 in test [2] was 685 nM; in test [3] it was 70 nM. Also, the IC50 in test [1] (setting [4]) was found to be 0.052 µM.

For `C=CC(=O)N1CCN2c3nc(=O)n(-c4c(C)ccnc4C(C)C)c4cc(-c5c(C)ccc6[nH]ncc56)c(F)c(c34)OC[C@H]2C1` (atropisomer, axis not shown) [Compound 6A], in test [1] (setting [4]), the IC50 is 1.77 µM.

Take `C=CC(=O)N1CCN2c3nc(=O)n(-c4c(C)ccnc4C(C)C)c4c(F)c(-c5c(O)cccc5F)c(F)c(c34)OC[C@H]2C1` (atropisomer, axis not shown) [Compound 15A]: the GI50 stood at 4520 nM in test [2] and 3430 nM in test [3]. Besides, the IC50 in test [1] (setting [4]) came out at 6.36 µM.

On to `C=CC(=O)N1CCN2c3nc(=O)n(-c4c(C)ccnc4C(C)C)c4cc(-c5c(O)cccc5F)c(F)c(c34)OC[C@@H]2C1` [Compound 1A], for which, in test [1] (setting [5]), the IC50 stood at 0.61 µM.

`C=C(F)C(=O)N1CCN2c3nc(=O)n(-c4c(C)ccnc4C(C)C)c4cc(-c5c(O)cccc5F)c(F)c(c34)OC[C@H]2C1` [Compound 5A]: in test [1] (setting [4]), the IC50 is 0.637 µM.

As for `C=CC(=O)N1CCN2c3nc(=O)n(-c4c(C)ccnc4C(C)C)c4c(F)c(-c5c(O)cccc5F)nc(c34)OC[C@@H]2C1` [Compound 3], the IC50 in test [1] (setting [4]) came out at 0.647 µM.

Turning to `C=CC(=O)N1CCN2c3nc(=O)n(-c4c(C)ccnc4C(C)C)c4nc(-c5c(O)cccc5F)c(F)c(c34)OC[C@H]2C1` (atropisomer, axis not shown) [Compound 7A], the GI50 in test [2] amounted to 629 nM; in test [3], 133 nM. In addition, the IC50 in test [1] (setting [4]) amounted to 0.196 µM.

Regarding `C=CC(=O)N1CCN(c2ncnc3c(F)c(-c4c(O)cccc4F)c(Cl)cc23)CC1` [ARS-1620], the GI50 in test [2] was 1210 nM; in test [3], 510 nM. Also, the IC50 in test [1] (Homo sapiens, NCI-H358, 2 h, read-out: p-ERK IC50 (NCI H358, μM)) was found to be 0.325 µM.

As to `C=CC(=O)N1CCN(c2nc(=O)n(-c3c(C)ccnc3C(C)C)c3c(F)c(-c4c(O)cccc4F)ncc23)[C@@H](C)C1` [Compound 13], the GI50 in test [2] stood at 1270 nM; in test [3] it was 320 nM. Moreover, the IC50 in test [1] (setting [4]) was 0.159 µM.

On to `C=CC(=O)N1CCN2c3nc(=O)n(-c4c(C)ccnc4C(C)C)c4cc(-c5c(O)cccc5F)c(F)c(c34)OC[C@H]2C1` [Compound 2], for which the IC50 in test [1] (setting [5]) worked out at 0.1 µM.

As to `C=CC(=O)N1CCN2c3nc(=O)n(-c4c(C)ccnc4C(C)C)c4cc(-c5c(O)cccc5F)c(F)c(c34)OC[C@@H]2C1` [Compound 1], the IC50 in test [1] (setting [5]) turned out to be 0.288 µM.

As to `C=CC(=O)N1CCN2c3nc(=O)n(-c4c(C)ccnc4C(C)C)c4cc(-c5c(O)ccc(F)c5F)c(F)c(c34)OC[C@H]2C1` (atropisomer, axis not shown) [Compound 4A], the results for the GI50 in test [2] and in test [3] were 324 nM and 34 nM, respectively. For the same compound, in test [1] (setting [4]), the IC50 came out at 0.038 µM.

Take `C=CC(=O)N1C[C@@H]2COc3c(F)c(-c4c(O)cccc4F)nc4c3c(nc(=O)n4-c3c(C)ccnc3C(C)C)N2[C@@H](C)C1` (single isomer, unassigned) [Compound 8A]: the GI50 is 304 nM in test [2] and 350 nM in test [3]. In test [1] (setting [4]), the IC50 was determined as 0.26 µM.

With `C=CC(=O)N1CCN2c3nc(=O)n(-c4c(C)ccnc4C(C)C)c4cc(-c5c(N)cccc5F)c(F)c(c34)OC[C@H]2C1` [Compound 12A], the GI50 was 54 nM in test [2] and 10 nM in test [3]. In test [1] (setting [4]), the IC50 was 0.032 µM.

For `C=CC(=O)N1CCN2c3nc(=O)n(-c4c(C)ccnc4C(C)C)c4cc(-c5c(O)cccc5F)c(F)c(c34)OC[C@H]2C1` [Compound 2A], the GI50 turned out to be 48 nM in test [2] and 29 nM in test [3]. Also, in test [1] (setting [4]), the IC50 stood at 0.053 µM.
